Measured values reported in patent US20250179061A1 (SIRONAX LTD., priority 2022, published 2025).
pIC50: −log10 of the molar value. Read-outs that look alike come from different tables or passages of the source.

System: HT-29 cells
Test: HT-29 necroptosis cell viability assay (TNF-α/SMAC mimetic/zVAD-FMK, CellTiter-Glo)
Assay type: cell-based
Conditions: Homo sapiens
How it was run: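 Necroptosis was triggered by TNF-α (10 ng/ml), SMAC mimetic (6 μM) and zVAD-FMK (10 μM) in serum-free medium during 20 h compound exposure (10 concentrations, threefold steps) of HT-29 cells. IC50 from duplicate dose-responses uses CellTiter-Glo ATP luminescence as viability read-out.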

[1] = HT-29 cells stimulated with TNF-α (10 ng/ml), SMAC mimetic (6 μM) and zVAD-FMK (10 μM), 20 hours, CellTiter-Glo ATP luminescence, geometric mean IC50 from 10 points, read-out: Activity
[2] = HT-29, HT-29 necroptosis cell viability assay, class symbols for IC50, read-out: Activity
[3] = HT-29, HT-29 necroptosis cell viability, IC50 class symbols, read-out: Activity

Structure (SMILES) | pIC50 [1] | pIC50 [2] | also measured
Cc1nc(N2CC([C@H](C)O)C2)sc1Oc1ccc(-n2ncn(Cc3c(F)cccc3F)c2=O)cc1 [Example 52, (S)-4-(2,6-difluorobenzyl)-2-(4-((2-(3-(1-hydroxyethyl)azetidin-1-yl)-4-methylthiazol-5-yl)oxy)phenyl)-2,4-dihydro-3H-1,2,4-triazol-3-one] | > 7.00 | – | –
Cc1ncsc1OC1CCC(n2ncn(Cc3c(F)cccc3F)c2=O)CC1 (stereo not shown) [Example 162, 4-(2,6-difluorobenzyl)-2-(4-((4-methylthiazol-5-yl)oxy)cyclohexyl)-2,4-dihydro-3H-1,2,4-triazol-3-one] | – | 6.00 to 7.00 | –
Cc1nn(Cc2ccc(-n3ncn(Cc4c(F)cccc4F)c3=O)cc2)c(C)c1N [Example 193, 2-(4-((4-amino-3,5-dimethyl-1H-pyrazol-1-yl)methyl)phenyl)-4-(2,6-difluorobenzyl)-2,4-dihydro-3H-1,2,4-triazol-3-one] | – | 5.00 to 6.00 | –
Cc1nc(N2CC(C(C)(C)N)C2)sc1Oc1ccc(-n2ncn(Cc3c(F)cccc3F)c2=O)cc1 [Example 68, 2-(4-((2-(3-(2-aminopropan-2-yl)azetidin-1-yl)-4-methylthiazol-5-yl)oxy)phenyl)-4-(2,6-difluorobenzyl)-2,4-dihydro-3H-1,2,4-triazol-3-one] | > 7.00 | – | –
Cc1nc(N2CC(OC3CC3)C2)sc1Oc1ccc(-n2ncn(Cc3c(F)cccc3F)c2=O)cc1 [Example 47, 2-(4-((2-(3-cyclopropoxyazetidin-1-yl)-4-methylthiazol-5-yl)oxy)phenyl)-4-(2,6-difluorobenzyl)-2,4-dihydro-3H-1,2,4-triazol-3-one] | > 7.00 | – | –
CCOC(=O)c1nc(C)n(Cc2ccc(-n3ncn(Cc4c(F)cccc4F)c3=O)cc2F)c1C [Example 215, ethyl 1-(4-(4-(2,6-difluorobenzyl)-5-oxo-4,5-dihydro-1H-1,2,4-triazol-1-yl)-2-fluorobenzyl)-2,5-dimethyl-1H-imidazole-4-carboxylate] | – | > 7.00 | –
Cc1nc(N2CC(C)(C#N)C2)sc1C(O)c1ccc(-n2ncn(Cc3c(F)cccc3F)c2=O)cc1 (stereo not shown) [Example 511, 1-(5-((4-(4-(2,6-difluorobenzyl)-5-oxo-4,5-dihydro-1H-1,2,4-triazol-1-yl)phenyl)(hydroxy)methyl)-4-methylthiazol-2-yl)-3-methylazetidine-3-carbonitrile] | – | 5.00 to 6.00 | –
Cc1nn(-c2ccc(N(C)c3ccccc3)cc2)c(=O)n1Cc1ccccc1 [Example 67, 4-benzyl-5-methyl-2-(4-(methyl(phenyl)amino)phenyl)-2,4-dihydro-3H-1,2,4-triazol-3-one] | 6.00 to 7.00 | – | –
NC(=O)c1ncc(Oc2ccc(-n3nc4n(c3=O)[C@H](c3ccccc3)CC4)cc2F)s1 (single isomer, unassigned) [Example 670] | – | – | pIC50 (HT-29, HT-29 cells, necroptosis induced by TNF-α/SMAC mimetic/zVAD-FMK, CellTiter-Glo, read-out: Activity (IC50 class)): > 7.00
Cc1nc(C(O)C(F)F)sc1Oc1ccc(-n2ncn(Cc3c(F)cccc3F)c2=O)cc1F (stereo not shown) [Example 446, 2-(4-((2-(2,2-difluoro-1-hydroxyethyl)-4-methylthiazol-5-yl)oxy)-3-fluorophenyl)-4-(2,6-difluorobenzyl)-2,4-dihydro-3H-1,2,4-triazol-3-one] | – | – | pIC50 [3]: > 7.00
CCOC1CN(c2cc(Oc3ccc(-n4ncn(Cc5c(F)cccc5F)c4=O)cc3)c(Cl)cn2)C1 [Example 326, 2-(4-((5-chloro-2-(3-ethoxyazetidin-1-yl)pyridin-4-yl)oxy)phenyl)-4-(2,6-difluorobenzyl)-2,4-dihydro-3H-1,2,4-triazol-3-one] | – | – | pIC50 [3]: > 7.00
C[C@H]1C[C@@H](NC(=O)OC(C)(C)C)CN1c1cc(Oc2ccc(-n3ncn(Cc4c(F)cccc4F)c3=O)cc2F)ccn1 [Example 368, tert-butyl ((3R,5S)-1-(4-(4-(4-(2,6-difluorobenzyl)-5-oxo-4,5-dihydro-1H-1,2,4-triazol-1-yl)-2-fluorophenoxy)pyridin-2-yl)-5-methylpyrrolidin-3-yl)carbamate] | – | – | pIC50 [3]: 6.00 to 7.00
Cc1nc(C2(O)COC2)sc1Oc1ccc(-n2ncn(Cc3c(F)cccc3F)c2=O)cc1F [Example 585, 4-(2,6-difluorobenzyl)-2-(3-fluoro-4-((2-(3-hydroxyoxetan-3-yl)-4-methylthiazol-5-yl)oxy)phenyl)-2,4-dihydro-3H-1,2,4-triazol-3-one] | – | > 7.00 | –
